Patent US9187465B2, “Oxazole tyrosine kinase inhibitors” (Sareum Limited, priority 2007, dated 2015)
Where two headings read alike, the source gives them in different places.

Tests used:
[1] = target: T1, human FLT4 (Homo sapiens, UniProt P35916); assay: FLT4 kinase assay (DELFIA enzyme inhibition); format: biochemical
T1 construct: a construct expressing the human FLT4 (789-1207) with an amino terminal GST tag; host or cells: Sf9 insect cells (baculovirus)
Experimental: A GST-kinase fusion protein of 70 KDa was produced using sf9 baculovirus expression system, with a construct expressing the human FLT4 (789-1207) with an amino terminal GST tag. The protein was purified by affinity chromatography using glutathione-agarose followed by separation on a gel filtration column.
FLT4 enzyme activity is determined using a Dissociation Enhanced Lanthanide Fluorescent Immunoassay (DELFIA) with a peptide substrate derived from the MET (Tyr 1253) peptide […] with a core sequence […].
The amount of phosphorylated peptide produced is detected by means of a phospho-Tyrosine specific Europium-labelled antibody using Time-Resolved Fluorescence at Excitation 360-35 nm and Emission 620-35 nm.
Assay reactions are set up in a 25 uL final volume on a 96 well plate. […] The reaction is allowed to proceed for 30 minutes at room temperature before stopping with 100 uL Stop solution comprising of 100 mM EDTA, 1×BSA blocker in TBS (Perbio) and 0.05% Surfact-Amps20 (Perbio).
The stopped reaction is transferred to a black 96-well Neutravidin-coated plate (Perbio) and incubated for 30 minutes to capture the biotinylated peptide substrate. After washing wells 3 times with 200 uL TBS/T buffer, Anti-Phospho-Tyr-100 antibody labelled with Eu—N1 (Perkin Elmer AD0159) is added to all wells for 60 minutes at room temperature. After a repeat washing step, DELFIA Enhancement solution (Perkin Elmer) is added to all wells for 5 minutes and the fluorescence measured on a plate reader Analyst HT (Molecular Devices).
The % inhibition of the activity is calculated and plotted in order to determine the concentration of test compound required to inhibit 50% of the enzyme activity (IC50).

[2] = target: T2, human Aurora A (Homo sapiens, UniProt O14965); assay: Aurora A kinase assay (DELFIA enzyme inhibition); format: biochemical
T2 construct: Histidine tag (N); host or cells: Sf9 insect cells (baculovirus)
T2 sequence (O14965 1-403): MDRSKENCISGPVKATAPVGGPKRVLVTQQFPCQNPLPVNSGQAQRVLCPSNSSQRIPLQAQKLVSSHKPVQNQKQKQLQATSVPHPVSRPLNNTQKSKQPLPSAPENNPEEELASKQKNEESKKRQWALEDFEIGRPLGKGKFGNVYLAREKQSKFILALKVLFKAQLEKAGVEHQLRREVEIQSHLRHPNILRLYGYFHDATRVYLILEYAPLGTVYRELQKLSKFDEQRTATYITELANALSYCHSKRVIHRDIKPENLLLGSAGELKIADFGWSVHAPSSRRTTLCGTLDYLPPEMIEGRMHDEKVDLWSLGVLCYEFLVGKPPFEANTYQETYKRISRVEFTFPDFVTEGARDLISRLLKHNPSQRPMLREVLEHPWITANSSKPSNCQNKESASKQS
Experimental: The protein was purified by one-step affinity chromatography using nickel-agarose […]
Assay reactions are set up in a 25 uL final volume on a 96 well plate. […] The reaction is allowed to proceed for 30 minutes at room temperature before stopping with 100 μL Stop solution comprising of 100 mM EDTA, 1×BSA blocker in TBS (Perbio) and 0.05% Surfact-Amps20 (Perbio).
The stopped reaction is transferred to a black 96-well Neutravidin-coated plate (Perbio) and incubated for 30 minutes to capture the biotinylated peptide substrate. […] After repeating the washing step, the plate is further incubated for one hour with Europium-labelled anti-rabbit antibody (Perkin Elmer AD0105). The wash step is repeated for a final time before DELFIA Enhancement solution (Perkin Elmer) is added to all wells for 5 minutes and the fluorescence measured on a plate reader Analyst HT (Molecular Devices).

T1 sequence (P35916 789-1207): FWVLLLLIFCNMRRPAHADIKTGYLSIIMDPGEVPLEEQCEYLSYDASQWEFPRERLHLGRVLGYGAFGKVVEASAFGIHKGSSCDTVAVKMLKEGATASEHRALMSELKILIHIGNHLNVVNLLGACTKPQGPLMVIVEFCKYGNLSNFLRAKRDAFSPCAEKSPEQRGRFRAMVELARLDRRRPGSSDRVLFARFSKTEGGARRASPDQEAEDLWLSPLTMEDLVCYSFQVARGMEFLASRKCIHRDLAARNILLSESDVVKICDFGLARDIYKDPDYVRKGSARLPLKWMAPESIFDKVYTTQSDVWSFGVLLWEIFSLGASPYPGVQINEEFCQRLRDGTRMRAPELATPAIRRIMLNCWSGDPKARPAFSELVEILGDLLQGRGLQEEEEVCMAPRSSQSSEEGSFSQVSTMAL

Row | SMILES | IC50 ([1]; read-out: FLT4 IC50) | IC50 ([2]; read-out: Aurora A IC50) | IC50 [1] | IC50 [2]
1 | COc1ccc(-c2nc(-c3cccnc3)[nH]c2C(N)=O)cc1 [Example A-12, 4-(4-methoxyphenyl)-2-(pyridin-3-yl)-1H-imidazole-5-carboxamide] | < 100 µM | < 100 µM | – | –
2 | NC(=O)c1nc(-c2c(F)cccc2F)oc1Nc1ccc(C(=O)N[C@@H]2CCNC2)cc1 [Example U-6, (R)-2-(2,6-difluorophenyl)-5-(4-(pyrrolidin-3-ylcarbamoyl)phenylamino)oxazole-4-carboxamide] | < 10 µM | < 10 µM | – | –
3 | COc1ccccc1Nc1oc(-c2c(F)cccc2F)nc1C(N)=O [Example Q-5, 2-(2,6-difluorophenyl)-5-(2-methoxyphenylamino)oxazole-4-carboxamide] | < 10 µM | < 100 µM | – | –
4 | COc1ccc(-c2oc(-c3c(F)cccc3F)nc2C(N)=O)cc1 [Example E-2, 2-(2,6-difluorophenyl)-5-(4-methoxyphenyl)oxazole-4-carboxamide] | < 10 µM | < 100 µM | – | –
5 | NC(=O)c1nc(-c2c(F)cccc2F)oc1-c1ccsc1 [Example F-5, 2-(2,6-difluorophenyl)-5-(thiophen-3-yl)oxazole-4-carboxamide] | < 10 µM | < 100 µM | – | –
6 | NC(=O)c1nc(-c2c(F)cccc2F)oc1Nc1ccc(C(=O)NC[C@@H]2CCCNC2)cc1 [Example Q-55, (R)-5-(4-((piperidin-3-ylmethyl)carbamoyl)phenylamino)-2-(2,6-difluorophenyl)oxazole-4-carboxamide] | < 10 µM | < 10 µM | – | –
7 | NC(=O)c1nc(-c2ccc3[nH]ccc3c2)oc1-c1ccc(N2CCNCC2)cc1 [Example M-15, 2-(1H-indol-5-yl)-5-(4-(piperazin-1-yl)phenyl)oxazole-4-carboxamide] | < 10 µM | < 10 µM | – | –
8 | NC(=O)c1nc(-c2ccnc3[nH]ccc23)oc1-c1ccc(N2CCNCC2)cc1 [Example M-18, 5-(4-(piperazin-1-yl)phenyl)-2-(1H-pyrrolo[2,3-b]pyridin-4-yl)oxazole-4-carboxamide] | < 10 µM | < 10 µM | – | –
9 | NC(=O)c1[nH]c(-c2c(F)cccc2F)nc1-c1ccccc1F [Example A-18, 2-(2,6-difluorophenyl)-4-(2-fluorophenyl)-1H-imidazole-5-carboxamide] | – | < 10 µM | – | –
10 | COc1ccc(-c2nc(-c3ccccc3F)[nH]c2C(N)=O)cc1 [Example A-11, 2-(2-fluorophenyl)-4-(4-methoxyphenyl)-1H-imidazole-5-carboxamide] | < 100 µM | < 100 µM | – | –
11 | CCN(CCO)CCOc1ccc(-c2oc(-c3c(F)cccc3F)nc2C(N)=O)cc1 [Example S-19, 2-(2,6-difluorophenyl)-5-(4-(2-(ethyl(2-hydroxyethyl)amino)ethoxy)phenyl)oxazole-4-carboxamide] | < 10 µM | < 10 µM | – | –
12 | NC(=O)c1nc(-c2c(F)cccc2F)oc1-c1ccc(OCC2CNCCO2)cc1 (stereo not shown) [Example S-15, 2-(2,6-difluorophenyl)-5-(4-(morpholin-2-ylmethoxy)phenyl)oxazole-4-carboxamide] | < 10 µM | < 10 µM | – | –
13 | NC(=O)c1nc(-c2c(F)cccc2F)oc1Nc1ccc(C(=O)NCCN2CCOCC2)cc1 [Example U-9, 5-(4-((2-morpholinoethyl)carbamoyl)phenylamino)-2-(2,6-difluorophenyl)oxazole-4-carboxamide] | < 10 µM | < 10 µM | – | –
14 | CN(C)CCNc1ccc(-c2oc(-c3c(F)cccc3F)nc2C(N)=O)cc1 [Example F-33, 2-(2,6-difluorophenyl)-5-(4-(2-(dimethylamino)ethylamino)phenyl)oxazole-4-carboxamide] | < 10 µM | < 10 µM | – | –
15 | COc1ccc(-c2nc(-c3c(F)cccc3Cl)[nH]c2C(N)=O)cc1 [Example A-15, 2-(2-chloro-6-fluorophenyl)-4-(4-methoxyphenyl)-1H-imidazole-5-carboxamide] | < 100 µM | < 100 µM | – | –
16 | COc1ccc(-c2nc(-c3c(F)cccc3F)[nH]c2C(N)=O)cc1 [Example B-5, 2-(2,6-difluorophenyl)-4-(4-methoxyphenyl)-1H-imidazole-5-carboxamide] | < 100 µM | < 100 µM | – | –

Row | SMILES | IC50 ([1]; read-out: FLT4 IC50) | IC50 ([2]; read-out: Aurora A IC50) | IC50 [1] | IC50 [2]
17 | COc1ccc(-c2oc(-c3ccc(C(F)(F)F)cc3F)nc2C(N)=O)cc1 [Example N-5, 2-(2-fluoro-4-(trifluoromethyl)phenyl)-5-(4-methoxyphenyl)oxazole-4-carboxamide] | – | < 100 µM | – | –
18 | NC(=O)c1nc(-c2c(F)cccc2F)oc1Nc1ccc(C(=O)N2CCOCC2)cc1 [Example U-2, 2-(2,6-difluorophenyl)-5-(4-(morpholine-4-carbonyl)phenylamino)oxazole-4-carboxamide] | < 10 µM | < 10 µM | – | –
19 | NC(=O)c1nc(-c2c(F)cccc2F)oc1Nc1ccc(C(=O)NC2CN3CCC2CC3)cc1 (stereo not shown) [Example U-10, 2-(2,6-difluorophenyl)-5-(4-(quinuclidin-3-ylcarbamoyl)phenylamino)oxazole-4-carboxamide] | – | – | < 10 µM | < 10 µM
20 | NC(=O)c1nc(-c2c(F)cccc2F)oc1Nc1ccc(N2CCOCC2)nc1 [Example Q-48, 2-(2,6-difluorophenyl)-5-(6-morpholinopyridin-3-ylamino)oxazole-4-carboxamide] | < 10 µM | < 10 µM | – | –
21 | NC(=O)c1nc(-c2c(F)cccc2F)oc1Nc1ccc(C(=O)N[C@@H]2CCCNC2)cc1 [Example Q-53, (R)-2-(2,6-difluorophenyl)-5-(4-(piperidin-3-ylcarbamoyl)phenylamino)oxazole-4-carboxamide] | < 10 µM | < 10 µM | – | –
22 | COc1ccc(-c2oc(-c3cccc(C)c3)nc2C(N)=O)cc1 [Example N-10, 5-(4-methoxyphenyl)-2-m-tolyloxazole-4-carboxamide] | < 100 µM | < 100 µM | – | –
23 | NC(=O)c1nc(-c2c(F)cccc2F)oc1Nc1ccccc1 [Example O-1, 2-(2,6-difluorophenyl)-5-(phenylamino)oxazole-4-carboxamide] | < 10 µM | < 10 µM | – | –
24 | COc1ccc(-c2oc(-c3ccc(C(F)(F)F)cc3)nc2C(N)=O)cc1 [Example N-4, 5-(4-methoxyphenyl)-2-(4-(trifluoromethyl)phenyl)oxazole-4-carboxamide] | – | < 100 µM | – | –
25 | COc1ccc(-c2oc(-c3ccc(C)cc3)nc2C(N)=O)cc1 [Example N-9, 5-(4-methoxyphenyl)-2-p-tolyloxazole-4-carboxamide] | – | < 100 µM | – | –
26 | COc1ccc(-c2oc(Nc3c(F)cccc3F)nc2C(N)=O)cc1 [Example R-9, 2-(2,6-difluorophenylamino)-5-(4-methoxyphenyl)oxazole-4-carboxamide] | – | < 10 µM | – | –
27 | COc1ccc(-c2oc(-c3cc(C(F)(F)F)ccc3F)nc2C(N)=O)cc1 [Example N-6, 2-(2-fluoro-5-(trifluoromethyl)phenyl)-5-(4-methoxyphenyl)oxazole-4-carboxamide] | – | < 100 µM | – | –
28 | COc1ccc(-c2oc(-c3ccccc3C(N)=O)nc2C(N)=O)cc1 [Example M-6, 2-(2-carbamoylphenyl)-5-(4-methoxyphenyl)oxazole-4-carboxamide] | – | < 100 µM | – | –
29 | NC(=O)c1nc(-c2c(F)cccc2F)oc1-c1cccc2cccnc12 [Example F-37, 2-(2,6-difluorophenyl)-5-(quinolin-8-yl)oxazole-4-carboxamide] | – | < 100 µM | – | –
30 | NC(=O)c1nc(-c2c(F)cccc2F)oc1-c1cccc2ccccc12 [Example F-35, 2-(2,6-difluorophenyl)-5-(naphthalen-1-yl)oxazole-4-carboxamide] | – | < 100 µM | – | –
31 | NC(=O)c1nc(-c2c(F)cccc2F)oc1-c1cccc2[nH]ccc12 [Example F-36, 2-(2,6-difluorophenyl)-5-(1H-indol-4-yl)oxazole-4-carboxamide] | – | < 100 µM | – | –
